From PubChem BioAssay (NCI)
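GI50: concentration for 50% inhibition of growth. Definition used: TGI = concentration required for complete inhibition of growth.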

How the values were obtained:
Test in all cases: NCI tumour cell line growth inhibition, 384-well format
[1] = tested on: SN12C renal
[2] = tested on: OVCAR-5 ovarian
[3] = tested on: OVCAR-8 ovarian
[4] = tested on: M14 melanoma
[5] = tested on: PC-3 prostate
[6] = tested on: MDA-MB-435 melanoma
[7] = tested on: HL-60(TB) leukemia
[8] = tested on: HT29 colon
[9] = tested on: HS 578T breast
[10] = tested on: HCT-15 colon
[11] = tested on: SK-MEL-28 melanoma
[12] = tested on: HCC-2998 colon
[13] = tested on: NCI-H23 lung

`C[C@H](NC(=O)c1c(N)nn2cccnc12)c1cc2cccc(C#Cc3cnn(C)c3)c2c(=O)n1-c1ccccc1` was tested, and the GI50 [1] was 4.38 µM, the TGI [1] was 20 µM and the GI50 [2] was 8.39 µM. For the same compound, the TGI [2] was 22.2 µM, the GI50 [3] was 8.07 µM and the TGI [3] was 21.3 µM. For the same compound, the GI50 [4] was 11.1 µM, the TGI [4] was 24.9 µM and the GI50 [5] was 1.84 µM. The TGI [5] was 12.9 µM, the GI50 [6] was 10.6 µM and the TGI [6] was 24.1 µM. It also gave a GI50 [7] of 1.15 µM, a TGI [7] of 4.94 µM and a GI50 [8] of 6.3 µM. For the same compound, the TGI [8] was 20 µM, the GI50 [9] was 0.846 µM and the TGI [9] was 6.01 µM. The GI50 [10] was 5.88 µM, the TGI [10] was 18.7 µM and the GI50 [11] was 4.42 µM. The TGI [11] was 17.8 µM, the GI50 [12] was 3.75 µM and the TGI [12] was 15.1 µM. The GI50 [13] was 4.63 µM and the TGI [13] was 18.9 µM.
